Results from patent US20040162221A1, “Pyrazole derivatives and herbicides containing the same” (IDEMITSU KOSAN CO., LTD., priority 1998, published 2004).

Key:
green foxtail [1] = experiment: Upland pre-emergence treatment test, green foxtail; type: in vivo, green foxtail (Setaria viridis); conditions: pre-emergence soil surface spray, 80 g/ha, 20th day after treatment, greenhouse; note: ranges in brackets are in %
Description: (§1) 97 Parts by weight of talc (trade name: Zeaklite, supplied by Zeaklite Industry) as a carrier, 1.5 parts by weight of alkylarylsulfonic acid salt (trade name: Neoplex, supplied by Kao-Atlas K.K.) as a surfactant and 1.5 parts by weight of a nonionic and anionic surfactant (trade names Sorpol 800A, supplied by Toho Chemical Co., Ltd.) were uniformly pulverized and mixed to prepare a carrier for a wettable powder.
(§2) 90 Parts by weight of the above carrier for a wettable powder and 10 parts by weight of one of the compounds of the present invention were uniformly pulverized and mixed to obtain herbicides. Further, in Comparative Herbicide Examples, comparative herbicides were also prepared from the following compounds (A) and (B) in the same manner.
(§3) Herbicidal efficacy and phytotoxicity to crops were determined on the basis of the ratio of remaining plant weight to plant weight in non-treated plot=(remaining plant weight in treated plot/plant weight in non-treated-plot)×100. The ratings were applied to the following biological tests.
(§4) Seeds of weeds such as velvetleaf, common lambsquaters, redroot pigweed, common ragweed, green foxtail and large crabgrass and seeds of corn were sown in 1/5,000-are Wagner pots filled with upland soil, and covered with upland soil. Then, a predetermined amount of the herbicide prepared in the above (1) was suspended in water, and the suspension was uniformly sprayed onto the soil surface at a rate of 2,000 liters/hectare. Then, the seeds were grown in a greenhouse, and on the 20th day after the treatment, the herbicide was evaluated for herbicidal efficacy and phytotoxicity to corn on the basis of the ratings shown in (2).

corn [2] = experiment: Upland post-emergence treatment test, phytotoxicity to corn; type: in vivo; conditions: post-emergence spray at 3-4 leaf stage, 80 g/ha, 30th day after treatment, greenhouse; note: ranges in brackets are in %
Description: as §1, §2, §3
(§5) Seeds of weeds velvetleaf, redroot pigweed, common ragweed, green foxtail and large crabgrass and seeds of corn were sown in 1/5,000-are Wagner pots filled with upland soil, and covered with upland soil. The seeds were grown in a greenhouse, and at the stage of 3˜4 leaves of these plants, a predetermined amount of the herbicide prepared in the above (1) was suspended in water, and the suspension was uniformly sprayed onto leaf and stalk portions at a rate of 2,000 liters/hectare. Then, the plants were grown in the greenhouse, and on the 30th day after the treatment, the herbicide was evaluated for herbicidal efficacy and phytotoxicity to the corn on the basis of the ratings shown in (2).

large crabgrass [3] = experiment: Upland pre-emergence treatment test, large crabgrass; type: in vivo; conditions: pre-emergence soil surface spray, 80 g/ha, 20th day after treatment, greenhouse; note: ranges in brackets are in %
Description: as §1, §2, §3, §4

redroot pigweed [4] = experiment: Upland pre-emergence treatment test, redroot pigweed; type: in vivo, redroot pigweed (Amaranthus retroflexus); conditions: for Herbicidal Efficacy CC = Rough Pigweed: pre-emergence soil surface spray, 80 g/ha, 20th day after treatment, greenhouse; for Herbicidal Efficacy CC = Rough Pigweed: ranges in brackets are in %
Description: as §1, §2, §3, §4

velvetleaf [5] = experiment: Upland post-emergence treatment test, velvetleaf; type: in vivo, velvetleaf (Abutilon theophrasti); conditions: for Herbicidal Efficacy AA = Velvetleaf: post-emergence spray at 3-4 leaf stage, 80 g/ha, 30th day after treatment, greenhouse; for Herbicidal Efficacy AA = Velvetleaf: ranges in brackets are in %
Description: as §1, §2, §3, §5

green foxtail [6] = experiment: Upland post-emergence treatment test, green foxtail; type: in vivo, green foxtail (Setaria viridis); conditions: post-emergence spray at 3-4 leaf stage, 80 g/ha, 30th day after treatment, greenhouse; note: ranges in brackets are in %
Description: as §1, §2, §3, §5

common ragweed [7] = experiment: Upland post-emergence treatment test, common ragweed; type: in vivo, common ragweed (Ambrosia artemisilfolia); conditions: post-emergence spray at 3-4 leaf stage, 80 g/ha, 30th day after treatment, greenhouse; note: ranges in brackets are in %
Description: as §1, §2, §3, §5

velvetleaf [8] = experiment: Upland pre-emergence treatment test, velvetleaf; type: in vivo, velvetleaf (Abutilon theophrasti); conditions: for Herbicidal Efficacy AA = Velvetleaf: pre-emergence soil surface spray, 80 g/ha, 20th day after treatment, greenhouse; for Herbicidal Efficacy AA = Velvetleaf: ranges in brackets are in %
Description: as §1, §2, §3, §4

corn [9] = experiment: Upland pre-emergence treatment test, phytotoxicity to corn; type: in vivo; conditions: pre-emergence soil surface spray, 80 g/ha, 20th day after treatment, greenhouse; note: ranges in brackets are in %
Description: as §1, §2, §3, §4

redroot pigweed [10] = experiment: Upland post-emergence treatment test, redroot pigweed; type: in vivo, redroot pigweed (Amaranthus retroflexus); conditions: for Herbicidal Efficacy CC = Redroot Pigweed: post-emergence spray at 3-4 leaf stage, 80 g/ha, 30th day after treatment, greenhouse; for Herbicidal Efficacy CC = Redroot Pigweed: ranges in brackets are in %
Description: as §1, §2, §3, §5

common ragweed [11] = experiment: Upland pre-emergence treatment test, common ragweed; type: in vivo, common ragweed (Ambrosia artemisilfolia); conditions: for Herbicidal Efficacy DD = Common ragweed: pre-emergence soil surface spray, 80 g/ha, 20th day after treatment, greenhouse; for Herbicidal Efficacy DD = Common ragweed: ranges in brackets are in %
Description: as §1, §2, §3, §4

large crabgrass [12] = experiment: Upland post-emergence treatment test, large crabgrass; type: in vivo; conditions: post-emergence spray at 3-4 leaf stage, 80 g/ha, 30th day after treatment, greenhouse; note: ranges in brackets are in %
Description: as §1, §2, §3, §5

common lambsquaters = experiment: Upland pre-emergence treatment test, common lambsquaters; type: in vivo, common lambsquaters (Chenopodium album); conditions: pre-emergence soil surface spray, 80 g/ha, 20th day after treatment, greenhouse; note: ranges in brackets are in %
Description: as §1, §2, §3, §4

[13] = pre-emergence, text summary of Table 7

Row | Compound | Herbicidal Efficacy EE = Green foxtail (green foxtail [1]) | Phytotoxicity Corn (corn [2]) | Herbicidal Efficacy FF = Large crabgrass (large crabgrass [3]) | Herbicidal Efficacy CC = Rough Pigweed (redroot pigweed [4]) | herbicidal efficacy against redroot pigweed (in words) (redroot pigweed [4]; [13]) | Herbicidal Efficacy AA = Velvetleaf (velvetleaf [5]) | herbicidal efficacy against velvetleaf (in words) (velvetleaf [5]; post-emergence, Tables 8 and 9) | Herbicidal Efficacy EE = Green foxtail (green foxtail [6]) | Herbicidal Efficacy DD = Common ragweed (common ragweed [7]) | Herbicidal Efficacy AA = Velvetleaf (velvetleaf [8]) | herbicidal efficacy against velvetleaf (in words) (velvetleaf [8]; [13]) | Phytotoxicity Corn (corn [9]) | Herbicidal Efficacy CC = Redroot Pigweed (redroot pigweed [10]) | herbicidal efficacy against redroot pigweed (in words) (redroot pigweed [10]; post-emergence, Tables 8 and 9) | Herbicidal Efficacy DD = Common ragweed (common ragweed [11]) | herbicidal efficacy against common ragweed (in words) (common ragweed [11]; [13]) | Herbicidal Efficacy FF = Large crabgrass (large crabgrass [12]) | Herbicidal Efficacy BB = Common lambsquaters (common lambsquaters)
1 | CCn1ncc(C(=O)c2cc(C)c3c(c2C)C(C)CS3(=O)=O)c1O (stereo not shown) [Compound (B), reference compound] | 5 (0) | ++ (80-89) | 5 (0) | 1 (61-80) | inferior | 2 (41-60) | inferior | 4 (1-20) | 5 (0) | 1 (61-80) | inferior | − (100) | 2 (41-60) | inferior | 2 (41-60) | inferior | 5 (0) | 4 (1-20)
2 | CCCS(=O)(=O)Oc1c(C(=O)c2ccc3c(c2C)C(C)(C)CS3(=O)=O)cnn1C [Compound 4, 5-(1′-methyl-5′-n-propanesulfonyloxypyrazol-4′-yl)carbonyl-3,3,4-trimethyl-2,3-dihydrobenzothiophene-1,1-dioxide] | 5 (0) | − (100) | 5 (0) | 5 (0) | – | 5 (0) | – | 5 (0) | 5 (0) | 5 (0) | – | − (100) | 5 (0) | – | 5 (0) | – | 5 (0) | 5 (0)
3 | Cc1c(C(=O)c2cnn(C)c2OS(=O)(=O)CCCCl)ccc2c1C(C)(C)CS2(=O)=O [Compound 14] | – | − (100) | – | – | – | 5 (0) | – | 5 (0) | 5 (0) | – | – | – | 5 (0) | – | – | – | 5 (0) | –
4 | CCC(=O)Oc1c(C(=O)c2ccc3c(c2C)C(C)(C)CS3(=O)=O)cnn1C [Compound 29] | – | − (100) | – | – | – | 5 (0) | – | 5 (0) | 5 (0) | – | – | – | 5 (0) | – | – | – | 5 (0) | –
5 | CCCCCCCCS(=O)(=O)Oc1c(C(=O)c2ccc3c(c2C)C(C)(C)CS3(=O)=O)cnn1C [Compound 12] | – | − (100) | – | – | – | 5 (0) | – | 5 (0) | 5 (0) | – | – | – | 5 (0) | – | – | – | 5 (0) | –
6 | Cc1c(C(=O)c2cnn(C)c2OS(=O)(=O)c2ccccc2)ccc2c1C(C)(C)CS2(=O)=O [Compound 15] | – | − (100) | – | – | – | 5 (0) | – | 5 (0) | 5 (0) | – | – | – | 5 (0) | – | – | – | 5 (0) | –
7 | CCc1ccc(S(=O)(=O)Oc2c(C(=O)c3ccc4c(c3C)C(C)(C)CS4(=O)=O)cnn2C)cc1 [Compound 19] | – | − (100) | – | – | – | 5 (0) | – | 5 (0) | 5 (0) | – | – | – | 5 (0) | – | – | – | 5 (0) | –
8 | CCS(=O)(=O)Oc1c(C(=O)c2ccc3c(c2C)C(C)(C)CS3(=O)=O)cnn1C [Compound 3] | 5 (0) | – | 5 (0) | 5 (0) | – | 5 (0) | – | 5 (0) | 5 (0) | 5 (0) | – | – | 5 (0) | – | 5 (0) | – | 5 (0) | 5 (0)
9 | Cc1c(C(=O)c2cnn(C)c2OS(=O)(=O)c2ccc(Cl)cc2Cl)ccc2c1C(C)(C)CS2(=O)=O [Compound 24] | – | − (100) | – | – | – | 5 (0) | – | 5 (0) | 5 (0) | – | – | – | 5 (0) | – | – | – | 5 (0) | –
10 | CCC(=O)Oc1c(C(=O)c2ccc3c(c2C)C(C)(C)CS3(=O)=O)cnn1C [Compound 30, 5-(1′-methyl-5′-n-propionyloxypyrazol-4′-yl)carbonyl-3,3,4-trimethyl-2,3-dihydrobenzothiophene-1,1-dioxide] | 5 (0) | – | 5 (0) | 5 (0) | – | – | – | – | – | 4 (1-20) | – | − (100) | – | – | 5 (0) | – | – | 5 (0)
11 | Cc1c(C(=O)c2cnn(C)c2OS(=O)(=O)C(C)C)ccc2c1C(C)(C)CS2(=O)=O [Compound 5] | – | − (100) | – | – | – | 5 (0) | – | 5 (0) | 5 (0) | – | – | – | 5 (0) | – | – | – | 5 (0) | –
12 | Cc1c(C(=O)c2cnn(C)c2OS(=O)(=O)c2ccc([N+](=O)[O-])cc2)ccc2c1C(C)(C)CS2(=O)=O [Compound 26] | – | − (100) | – | – | – | 5 (0) | – | 5 (0) | 5 (0) | – | – | – | 5 (0) | – | – | – | 5 (0) | –
